Laboratory results published in paper PMC8741257, “Identification of novel non-toxic and anti-angiogenic α-fluorinated chalcones as potent colchicine binding site inhibitors” (Journal of Enzyme Inhibition and Medicinal Chemistry, 2022).
Where two headings read alike, the source gives them in different places.

How the values were obtained:
[1] = system: A549 (human non-small cell lung cancer); test: Antiproliferative activity (SRB assay); format: cell-based; details: mean ± SD, three separated experiments, 72 h
Description: (§1) MCF-7, MGC-803, Hela and HepG-2 cell lines were cultured in a base medium (90% DMEM and 10% FBS), A549 and U937 were cultured in a base medium (90% PRMI-1640 and 10% FBS) at 37 °C, 5% CO2 and a saturated humidity atmosphere. All the mediums were supplemented with 10% FBS and 1% […]/streptomycin (all cells were purchased from Shanghai Institutes for Biological Sciences, Chinese Academy of Sciences, Shanghai, China).
(§2) A549, MGC-803, MCF-7, HepG2 and Hela cells were seeded at the appropriate cell line density (3 × 10^3 to 4 × 10^3 cells/well). The cells were then incubated at 37 °C for 24 h in a humidified 5%CO2 in 96-well plates prior to experiments. After a further 72 h of incubation, cell proliferation was quantified with SRB ([…]) to determine the number of surviving cells. The absorbance at 560 nm was measured by microplate. The experiment was repeated three times, and the data were listed in the form of mean and standard deviation.

[2] = system: Hela (human cervical cancer cells); test: Antiproliferative activity (SRB assay); format: cell-based; details: mean ± SD, three separated experiments, 72 h
Description: as §1, §2

[3] = system: HepG2 (human liver cancer cells); test: Antiproliferative activity (SRB assay); format: cell-based; details: mean ± SD, three separated experiments, 72 h
Description: as §1, §2

[4] = system: MCF-7 (human breast cancer cells); test: Antiproliferative activity (SRB assay); format: cell-based; details: MCF7, mean ± SD, three separated experiments, 72 h
Description: as §1, §2

[5] = system: human normal cells (LO2, 293T, macrophage) versus MGC-803; test: Selectivity of growth inhibition, human normal cells versus MGC-803; format: cell-based
Description: The effect of compound 4c on three types of normal human cell lines including LO2 (human hepatocyte cells), 293 T (human embryonic kidney cell) and THP-1-derived macrophages was then determined.

[6] = system: six human cancer cell lines (MCF-7, MGC-803, HepG2, Hela, A549, U937); test: Antiproliferative activity, summary over the tested cancer cell lines; format: cell-based; details: read-out: IC50
Description: as §2
MGC-803 cells were collected and seeded into 96 well plates at a density of 8000/well. The mediums containing drugs and cell suspension were added into the well. The cells were incubated in 5% CO2 incubator at 37 °C for 72 h. Each well was added 10 µL CCK8 solution, and the incubation time was 3–4 h. The absorbance value at 450 nm was measured by microplate reader. Data are calculated with GraphPad Prism5 software.

[7] = system: MGC-803 cells; test: Cell cycle distribution (PI, flow cytometry); format: cell-based, human
From the text: Most inhibitors of microtubule polymerisation are able to block mitosis in G2/M phase, which ultimately leads to apoptosis by disrupting tubulin-microtubule balance. To elucidate whether the cytotoxicity of 4c was due to cell cycle arrest, flow cytometry analysis and PI marking method were used to evaluate the effects of 4c on the MGC-803 cell cycle distribution. […] A significant difference was also observed when we further evaluated its effects using different time points (Figure 5(C,D)). MGC-803 cells treated with 4c (36 nM) can be arrested in the G2/M phase from 30.37% at 6 h to 45.37% at 24 h.
MGC-803 cells (15 × 10^4 cells/well) were inoculated in 6-well plates and incubated at 37 °C for 24 h, and then treated with 4c (18, 36, 72nΜ). The collected cells were washed with cold PBS and then fixed in 75% ethanol in PBS at −20 °C overnight. The cells were then washed twice with PBS buffer and then stained with 500 μL of […] (PI, 5 mg) staining solution […] for 15 min in the dark. Samples were immediately assayed for DNA content using a flow cytometer (Becton, Dickinson and Company, USA). The percentage of cell cycle phases was analysed by the software provided in the instrument.

[8] = system: MGC-803 cells; test: Transwell cell invasion assay; format: cell-based, human; details: compared with control group
Description: Metastasis is one of the leading causes of morbidity and mortality of cancer patients. Microtubules-targeting inhibitors have also been reported to interfere with cell migration and invasion. Accordingly, the in vitro would healing assay and Transwell assays were performed to investigate the inhibitory effect of compound 4c on the migration and invasion of MGC-803 cells. As shown Figure 8(A,C), the scratches healing rate in the control group was approximately 64%. By contrast, the cells treated with 4c have much smaller scratched areas recovery at all concentrations. […] Cell invasion is an important malignant behaviour during cancer metastasis. In Tanswell assay, MGC-803 cells were seeded into upper chambers with pre-coated Matrigel stimulating base membrane in order to assess the cellular invasion.
Matrix gel was thawed overnight at 4 °C. […] Transwell was placed into a 24-well plate, 35% acetic acid (300 μL) was added to the upper chamber of the chamber, and after acetic acid completely entered the lower chamber, 100 μL of acetic acid from the lower chamber was aspirated into a 96-well plate, and three replicate wells of each concentration were shaken for 10 min, and the absorbance was measured at 560 nm with an enzyme marker.

[9] = system: HUVECs (human umbilical vein endothelial cells); test: Wound healing migration assay; format: cell-based; details: 10 µM, 48 h, control 65%
Description: HUVECs (human umbilical vein endothelial cells) grown on Matrigel were commonly used as a tube formation model for studying the physiological and pathological processes of the vascular system in vitro, and a widely studied human endothelial cell type in angiogenesis. The effect of 4c on endothelial cell migration was assessed by using HUVECs. Standardised wounds were made in confluent monolayers of HUVECs and then exposed to compound 4c at 2.5, 5 and 10 µM for 48 h. […] We further evaluated the capacity of 4 s on endothelial cell invasion using a Transwell assay.
MGC-803 cells and HUVECs were seeded in 24-well plates and cultivated for 24 h at 37 °C. The cells were scribed vertically with a gun tip and washed with PBS to remove dead cells. The containing different concentrations of 4c were added to the scratched monolayers. The migrated cells were photographed under a light microscope at indicated time points from the scratch. Take a picture and use the image J software to calculate the area of the cell scratches.

COc1cc(C(=O)/C(F)=C/c2c[nH]c3cc(Br)ccc23)cc(OC)c1OC [4c, (Z)-3–(6-bromo-1H-indol-3-yl)-2-fluoro-1–(3,4,5-trimethoxyphenyl)prop-2-en-1-one]
IC50 [1]: 202 ± 12 nM | IC50 [2]: 25 ± 1 nM | IC50 [3]: > 5000 nM | IC50 [4]: 254 ± 37 nM | selectivity ratio towards MGC-803 cells and macrophage cells [5]: up to 21.2 folds | IC50 ([6]; against five of the tested cell lines, range): 25 to 202 nM | IC50 ([6]; against six cell lines, range as worded in text): 25 to 254 nM | percentage of cells in G2/M ([7]; 18 nM, control 32.15%): 50.47% | percentage of cells in G2/M ([7]; 36 nM, 6 h): 30.37% | percentage of cells in G2/M ([7]; 36 nM, control 32.15%): 83.65% | percentage of cells in G2/M ([7]; 72 nM, control 32.15%): 90.21% | invasion ability (Transwell, Matrigel) [8]: significant reduced invasion ability | wound closure rates [9]: 11%
